Data reported in patent US8846928B2 (Portola Pharmaceuticals, Inc., priority 2010, dated 2014).

The molecules below were run against T1, full length active recombinant SYK enzyme (Homo sapiens, UniProt P43405) (assay: Inhibition of Syk tyrosine phosphorylation activity (LANCE TR-FRET kinase assay)).
T1 construct: full length active recombinant SYK enzyme (Millipore, Calif.); purchased Millipore
Type: biochemical
In the case of `NC(=O)c1cc(F)c(N[C@@H]2CCCC[C@@H]2N)nc1Nc1cnc2ccccc2c1` [Example 70, 6-((1R,2S)-2-aminocyclohexylamino)-5-fluoro-2-(quinolin-3-ylamino)nicotinamide], the IC50 is reported as 1 to 10 nM. Work on `CC[C@@H](Nc1nc(Nc2ccn3ccnc3c2)c(C(N)=O)cc1F)C(N)=O` [Example 230, (R)-6-(1-amino-1-oxobutan-2-ylamino)-5-fluoro-2-(H-imidazo[1,2-a]pyridin-7-ylamino)nicotinamide] yielded an IC50 of 100 to 1000 nM. `Cn1cnc2cc(Nc3nc(N[C@@H]4CCCC[C@@H]4N)c(F)cc3C(N)=O)ccc21` [Example 153, 6-((1R,2S)-2-aminocyclohexylamino)-5-fluoro-2-(1-methyl-1H-benzo[d]imidazol-5-ylamino)nicotinamide] gave an IC50 of 1 to 10 nM. With `Cc1cc(C)cc(Nc2nc(N[C@@H]3CCCC[C@@H]3N)c(F)cc2C(N)=O)c1` [Example 320, 6-((1R,2S)-2-aminocyclohexylamino)-2-(3,5-dimethylphenylamino)-5-fluoronicotinamide] the IC50 was 1 to 10 nM. `Cn1ncc2cc(Nc3nc(N[C@@H]4CCCC[C@@H]4N)ccc3C(N)=O)ccc21` [Example 399, 6-((1R,2S)-2-aminocyclohexylamino)-2-(1-methyl-1H-indazol-5-ylamino)nicotinamide] gave an IC50 of 1 to 10 nM. In the case of `CC[C@H](CN)Nc1nc(Nc2cccc(-c3ncccn3)c2)c(C(N)=O)cc1F` [Example 92, (R)-6-(1-aminobutan-2-ylamino)-5-fluoro-2-(3-(pyrimidin-2-yl)phenylamino)nicotinamide], the IC50 is reported as 10 to 100 nM. In the case of `NC(=O)c1ccc(N[C@@H]2CCCC[C@@H]2N)nc1Nc1ccc2c(c1)OCCO2` [Example 254, 6-((1R,2S)-2-aminocyclohexylamino)-2-(2,3-dihydrobenzo[b][1,4]dioxin-6-ylamino)nicotinamide], the IC50 is reported as 1 to 10 nM. `C[C@H](N)CNc1nc(Nc2cccc(-n3nccn3)c2)c(C(N)=O)cc1C#N` [Example 108, (S)-2-(3-(2H-1,2,3-triazol-2-yl)phenylamino)-6-(2-aminopropylamino)-5-cyanonicotinamide] was tested, and the IC50 was 10 to 100 nM. For `CC[C@H](CN)Nc1nc(Nc2cncc(C)c2)c(C(N)=O)cc1F` [Example 95, (R)-6-(1-aminobutan-2-ylamino)-5-fluoro-2-(5-methylpyridin-3-ylamino)nicotinamide], the IC50 was 10 to 100 nM. With `Cc1cncc(Nc2nc(N[C@@H]3CCCC[C@@H]3N)ccc2C(N)=O)c1` [Example 256] the IC50 was 1 to 10 nM. `CC[C@@H](Nc1ccc(C(N)=O)c(Nc2cc(C)ns2)c1)C(N)=O` [Example 33, (R)-4-(1-amino-1-oxobutan-2-ylamino)-2-(3-methylisothiazol-5-ylamino)benzamide] was tested, and the IC50 was 10 to 100 nM. `Cc1cc(Nc2cc(N[C@H](Cc3cccnc3)C(N)=O)c(F)cc2C(N)=O)sn1` [Example 39, (R)-4-(1-amino-1-oxo-3-(pyridin-3-yl)propan-2-ylamino)-5-fluoro-2-(3-methylisothiazol-5-ylamino)benzamide] was tested, and the IC50 was 100 to 1000 nM. In the case of `Cn1ccc2cc(Nc3nc(N[C@@H]4CCCC(F)(F)[C@@H]4N)c(F)cc3C(N)=O)ccc21` [Example 331, 6-((1R,2R)-2-amino-3,3-difluorocyclohexylamino)-5-fluoro-2-(1-methyl-1H-indol-5-ylamino)nicotinamide], the IC50 is reported as 10 to 100 nM. For `NC(=O)c1ccc(N[C@@H]2CCCC[C@@H]2N)nc1Nc1ccc2cccnc2c1` [Example 186, 6-((1R,2S)-2-aminocyclohexylamino)-2-(quinolin-7-ylamino)nicotinamide], the IC50 was 1 to 10 nM. Work on `NC(=O)c1cc(F)c(N[C@H]2[C@@H](N)CCCC2(F)F)nc1Nc1cncc(F)c1` [Example 348] yielded an IC50 of 10 to 100 nM. `NC(=O)c1cc(F)c(N[C@@H]2CCCC[C@@H]2N)nc1Nc1cnc2nccnc2c1` [Example 77, 6-((1R,2S)-2-aminocyclohexylamino)-5-fluoro-2-(pyrido[3,2-b]pyrazin-7-ylamino)nicotinamide] gave an IC50 of 10 to 100 nM. `NC(=O)c1ccc(N[C@@H]2CCCC[C@@H]2N)nc1Nc1cnc2cc[nH]c2c1` [Example 407] gave an IC50 of 10 to 100 nM. `NC(=O)c1cc(F)c(N[C@@H]2CCCC(F)(F)[C@@H]2N)nc1Nc1cccc(-n2nccn2)c1` [Example 293] showed an IC50 of 100 to 1000 nM. `NC(=O)c1cc(F)c(N[C@@H]2CCCC[C@@H]2N)nc1Nc1ccc2ccncc2c1` [Example 68, 6-((1R,2S)-2-aminocyclohexylamino)-5-fluoro-2-(isoquinolin-7-ylamino)nicotinamide] gave an IC50 of 1 to 10 nM. With `CC[C@@H](Nc1nc(Nc2cnn3ccccc23)c(C(N)=O)cc1F)C(N)=O` [Example 424, (R)-6-(1-amino-1-oxobutan-2-ylamino)-5-fluoro-2-(pyrazolo[1,5-a]pyridin-3-ylamino)nicotinamide] the IC50 was 10 to 100 nM. With `NC(=O)c1cc(F)c(N[C@@H]2CCCC[C@@H]2N)nc1Nc1csc2ccncc12` [Example 394, 6-((1R,2S)-2-aminocyclohexylamino)-5-fluoro-2-(thieno[3,2-c]pyridin-3-ylamino)nicotinamide] the IC50 was 10 to 100 nM. `CC(C)[C@H](CN)Nc1nc(Nc2ccc3ncccc3c2)c(C(N)=O)cc1C#N` [Example 128, (R)-6-(1-amino-3-methylbuttan-2-ylamino)-5-cyano-2-(quinolin-6-ylamino)nicotinamide] showed an IC50 of 1 to 10 nM. `Cc1cc(C)cc(Nc2cc(N[C@@H]3CCCC[C@@H]3N)ccc2C(N)=O)c1` [Example 4, 4-((1R,2S)-2-aminocyclohexylamino)-2-(3,5-dimethylphenylamino)benzamide] was tested, and the IC50 was 100 to 1000 nM. `Cc1cc(Nc2cc(N[C@H](CC(C)C)C(N)=O)ccc2C(N)=O)on1` [Example 13, (R)-4-(1-amino-4-methyl-1-oxopentan-2-ylamino)-2-(3-methylisoxazol-5-ylamino)benzamide] was tested, and the IC50 was 100 to 1000 nM. For `NC(=O)c1cc(F)c(N[C@H](CC2CC2)C(N)=O)nc1Nc1cnc2ccccc2c1` [Example 251, (R)-6-(1-amino-3-cyclopropyl-1-oxopropan-2-ylamino)-5-fluoro-2-(quinolin-3-ylamino)nicotinamide], the IC50 was 1 to 10 nM. Work on `NC(=O)c1cc(F)c(N[C@@H]2CCCC[C@@H]2N)nc1Nc1cccc(OC2CCOCC2)c1` [Example 80, 6-((1R,2S)-2-aminocyclohexylamino)-5-fluoro-2-(3-(tetrahydro-2H-pyran-4-yloxy)phenylamino)nicotinamide] yielded an IC50 of 1 to 10 nM. `CCn1ccc2c(Nc3nc(N[C@@H]4CCCC(F)(F)[C@@H]4N)c(F)cc3C(N)=O)cccc21` [Example 390, 6-((1R,2R)-2-amino-3,3-difluorocyclohexylamino)-2-(1-ethyl-1H-indol-4-ylamino)-5-fluoronicotinamide] was tested, and the IC50 was 10 to 100 nM. For `CC[C@H](CN)Nc1nc(Nc2ccc3ncccc3c2)c(C(N)=O)cc1F` [Example 94, (R)-6-(1-aminobutan-2-ylamino)-5-fluoro-2-(quinolin-6-ylamino)nicotinamide], the IC50 was 1 to 10 nM. Molecule `NC(=O)c1cc(F)c(N[C@@H]2CCCC[C@@H]2N)nc1Nc1cccc(Cl)c1` [Example 317, 6-((1R,2S)-2-aminocyclohexylamino)-2-(3-chlorophenylamino)-5-fluoronicotinamide] has an IC50 of 1 to 10 nM. Molecule `N#Cc1cc(C(N)=O)c(Nc2ccc3ncsc3c2)nc1NC[C@@H](N)C1CC1` [Example 119, (S)-6-(2-amino-2-cyclopropylethylamino)-2-(benzo[d]thiazol-6-ylamino)-5-cyanonicotinamide] has an IC50 of 10 to 100 nM. Work on `NC(=O)c1ccc(N[C@@H]2CCCC[C@@H]2N)nc1Nc1cnc2ncccc2c1` [Example 165] yielded an IC50 of 1 to 10 nM. Work on `NC(=O)c1cc(F)c(N[C@@H]2CCCC[C@@H]2N)nc1Nc1cncnc1` [Example 152, 6-((1R,2S)-2-aminocyclohexylamino)-5-fluoro-2-(pyrimidin-5-ylamino)nicotinamide] yielded an IC50 of 100 to 1000 nM. `NC(=O)c1cc(F)c(N[C@@H]2CCCC[C@@H]2N)nc1Nc1cccc(F)c1` [Example 316, 6-((1R,2S)-2-aminocyclohexylamino)-5-fluoro-2-(3-fluorophenylamino)nicotinamide] was tested, and the IC50 was 1 to 10 nM. `NC(=O)c1cc(F)c(N[C@@H]2CCCC[C@@H]2N)nc1Nc1cccc(-n2ccnn2)c1` [Example 43] gave an IC50 of 1 to 10 nM. `CN1CCC(c2ccc(Nc3nc(N[C@@H]4CCCC[C@@H]4N)c(F)cc3C(N)=O)cc2)CC1` [Example 309, 6-((1R,2S)-2-aminocyclohexylamino)-5-fluoro-2-(4-(1-methylpiperidin-4-yl)phenylamino)nicotinamide] gave an IC50 of 10 to 100 nM. Work on `Cc1cc(Nc2cc(N[C@H](C)C(N)=O)ccc2C(N)=O)sn1` [Example 10, (R)-4-(1-amino-1-oxopropan-2-ylamino)-2-(3-methylisothiazol-5-ylamino)benzamide] yielded an IC50 of 100 to 1000 nM. In the case of `NC(=O)c1cc(F)c(N[C@@H]2CCCC[C@@H]2N)nc1Nc1cccc(-n2ccnc2)c1` [Example 46, 2-(3-(1H-imidazol-1-yl)phenylamino)-6-((1R,2S)-2-aminocyclohexylamino)-5-fluoronicotinamide], the IC50 is reported as 1 to 10 nM. `NC(=O)c1cc(F)c(N[C@@H]2CCOC[C@@H]2N)nc1Nc1cnc2ccccc2c1` [Example 275, 6-((3R,4R)-3-aminotetrahydro-2H-pyran-4-ylamino)-5-fluoro-2-(quinolin-3-ylamino)nicotinamide] showed an IC50 of 10 to 100 nM. For `NC(=O)c1ccc(N[C@@H]2CCCC[C@@H]2N)nc1Nc1cnc2ccccc2c1` [Example 185, 6-((1R,2S)-2-aminocyclohexylamino)-2-(quinolin-3-ylamino)nicotinamide], the IC50 was 1 to 10 nM. Work on `NC(=O)c1cc(F)c(N[C@@H]2CCCC(F)(F)[C@@H]2N)nc1Nc1csc2ncccc12` [Example 405, 6-((1R,2R)-2-amino-3,3-difluorocyclohexylamino)-5-fluoro-2-(thieno[2,3-b]pyridin-3-ylamino)nicotinamide] yielded an IC50 of 10 to 100 nM. In the case of `Cc1cc(Nc2cc(N[C@@H]3CCCC[C@@H]3N)ccc2C(N)=O)sn1` [Example 6, 4-((1R,2S)-2-aminocyclohexylamino)-2-(3-methylisothiazol-5-ylamino)benzamide], the IC50 is reported as 10 to 100 nM.
